The source of these data is US9605017B2, “2′, 5′-dideoxy-5-fluorouridine derivatives having cytotoxic activity, a process for the manufacture thereof and application thereof” (ADAM MICKIEWICZ UNIVERSITY, priority 2014, dated 2017).

SMILES strings stand for the structures. Values after ≈ are worked out from the molar mass of the structure shown. Values joined by “and” are separate entries in the source; they are usually repeats but may differ in a detail not shown here. Equal entries are not always repeated. Where two headings read alike, the source gives them in different places.

One series has as its system MCF-7 (breast cancer). The series can be described thus: Cytotoxicity test with sulphorhodamine B, 72 h, MCF-7 line. Particulars: for IC50: Homo sapiens; for higher activity than 5AddFU, breast cancer cells: relative to 5AddFU; for higher activity than 5FU, breast cancer cells: relative to 5FU; for higher activity than 5FdU, breast cancer cells: relative to 5FdU.
Another series deals with KB (nasopharynx cancer). In words: Cytotoxicity test with sulphorhodamine B, 72 h, KB line. As to conditions: read-out: Cytotoxic activity, IC50 KB (nasopharynx cancer).
A further series has as its system A549 (lung cancer). In words: Cytotoxicity test with sulphorhodamine B, 72 h, A549 line. Particulars: Homo sapiens.
The next series concerns HeLa (cervical cancer). The series can be described thus: Cytotoxicity test with sulphorhodamine B, 72 h, HeLa line. As to conditions: for IC50: Homo sapiens, HeLa; for activity compared to 5FU, cervical cancer cells: relative to 5FU.
In series [1] the test system is MCF-7, HeLa, A549 and KB cancer cell lines. In words: Cytotoxic activity tests, overall statement over the four cancer cell lines. Particulars: in words.
Procedure: (§1) Cytotoxic activity tests were performed using the following cancer cell lines: MCF-7 (breast cancer), HeLa (cervical cancer) A549 (lung cancer) and KB (nasopharynx cancer) obtained from ECACC (European Collection of Cell Cultures).
(§2) Cytotoxicity tests were carried out using a standard procedure with sulphorhodamine B. They involved incubation of the cancer cell lines in the logarithmic growth phase for 72 hours with the compound tested and, subsequently, spectrophotometric determination of the degree of cell growth inhibition using adsorption of a dye (sulphorhodamine B) which binds cellular proteins.
(§3) IC50 values, being concentration of a compound needed to obtain 50% inhibition of cell growth, were determined for all the derivatives tested.
(§4) To enable comparison, identical tests were performed using known cytotoxic agents: 5-fluoro-2′-deoxyuridine, 5-fluorouracil and 5′-azido-2′,5′-dideoxy-5-fluorouridine.
Series [2] deals with mouse tumour cells (S-180 line). Particulars: at concentrations as high as 400 μM; cited from earlier work.
Setting [3] is: MCF7, 72 h, read-out: Cytotoxic activity, IC50 MCF-7 line (breast cancer).
Setting [4] is: MCF7, read-out: Cytotoxic activity class, MCF-7 line (breast cancer).
Setting [5] is: A549, 72 h, read-out: Cytotoxic activity, IC50 A549 (lung cancer).
The mark [6] stands for this setting: A549, read-out: Cytotoxic activity class, A549 (lung cancer).
[7] abbreviates: 72 h, read-out: Cytotoxic activity, IC50 HeLa (cervical cancer).
[8] abbreviates: read-out: Cytotoxic activity class, HeLa (cervical cancer).

Procedure for A549 (lung cancer): as §1, §2
(§5) Cells of the cell line tested in the logarithmic growth phase were seeded onto 24-well plates in a quantity of 20,000 cells/2 mL of the growth medium per well and, subsequently, incubated in an incubator at 37° C., in the 5% CO2 atmosphere for 24 hours.
(§6) Solutions of the test compounds were prepared in DMSO in the following concentration range: 0.05; 0.1; 0.5; 1; 5; 10; 50; 100; 500 μM.
(§7) The cells of the lines tested were treated with the solutions of the test compounds in a laminar-flow chamber which ensured sterile working conditions according to the following procedure: the first three wells were used as a control: they contained 20 μL of DMSO only; successive solutions of the test compound were added to subsequent wells (20 μL), starting with the lowest concentration (three wells for each concentration level). Subsequently, the plates were placed in an incubator for 72 hours.
(§8) After the end of incubation, the adhered cells were fixed by adding 500 μL of cold (4° C.) 50% trichloroacetic acid (TCA) and incubated at 4° C. for 1 hour. Subsequently, each well was rinsed with sterile water and dried. The operation was repeated five times. The fixed cells were stained for 30 minutes by adding 500 μL of 0.4% of a dye solution (sulphorhodamine B) dissolved in 1% acetic acid. Any unbound dye was removed by decanting it from the plate, and the cells were washed 4 times with 1% acetic acid. Subsequently, the plates were dried in air for approx. 5 minutes. Any unbound dye was dissolved by adding 1500 μL of 10 mM Tris-base buffer (trishydroxymethylaminomethane) to each well and shaken using an orbital shaker for 5 minutes. Subsequently, 200 μL of solution from each well was transferred to each of two wells on a new 96-well plate and absorption of the solutions was determined spectrophotometrically at a wavelength of 490-530 nm using a plate reader. Percentage inhibition of cell growth by the test compound was calculated assuming the absorption of the control solution as 100%.
(§9) Cytotoxicity tests for the other compounds and cell lines were performed following an identical procedure.
(§10) Depending on the type of the cell line, the following growth media were used: • the MCF-7 line was grown in Dulbecco's Modified Eagle's Medium (DME) from Sigma (cat. no. D5796) • the HeLa, A549 and KB lines were grown in RPMI-1640 Medium from Sigma (cat. no. R8758).
as §3, §4
(§11) The values are average results of three independent determinations.
Procedure for HeLa (cervical cancer): as §1, §2, §5, §6, §7, §8, §9, §10, §3, §4, §11
Procedure for KB (nasopharynx cancer): as §1, §2, §5, §6, §7, §8, §9, §10, §3, §4, §11
Procedure for MCF-7 (breast cancer): as §1, §2, §5, §6, §7, §8, §9, §10, §3, §4, §11

`C=CC1C[N@@]2CCC1C[C@H]2[C@H](OCc1cn(CC2OC(n3cc(F)c(=O)[nH]c3=O)CC2O)nn1)c1ccnc2ccccc12` (stereo partly shown) [PCD5AFU, 5-Fluoro-1-(4-hydroxy-5-{4-[quinolin-4-yl-(5-vinyl-1-aza-bicyclo[2.2.2]oct-2-yl)-methoxymethyl]-[1,2,3]triazol-1-ylmethyl}-tetrahydrofuran-2-yl)-1H-pyrimidine-2,4-dione]: the IC50 was 11.8 µg/mL and 19.6 µM with MCF-7 (breast cancer) (setting [3]); 4 to 30 µg/mL (≈ 6.63 to 49.7 µM) with MCF-7 (breast cancer) (setting [4]); 17.5 µg/mL and 29 µM with KB (nasopharynx cancer); 17.8 µg/mL and 29.5 µM with A549 (lung cancer) (setting [5]); 4 to 30 µg/mL (≈ 6.63 to 49.7 µM) in the series with A549 (lung cancer) (setting [6]); 18.8 µg/mL and 29.8 µM with HeLa (cervical cancer) (setting [7]). Moreover, the IC50 in the series with HeLa (cervical cancer) (setting [8]) was 4 to 30 µg/mL (≈ 6.63 to 49.7 µM).
Consider `COc1ccc2nccc([C@@H](O)[C@@H]3CC4CC[N@]3CC4c3cn(CC4OC(n5cc(F)c(=O)[nH]c5=O)CC4O)nn3)c2c1` (stereo partly shown) [QN5AFU, 5-Fluoro-1-[4-hydroxy-5-(4-{6-[hydroxy-(6-methoxy-quinolin-4-yl)-methyl]-1-aza-bicyclo[2.2.2]oct-3-yl}-[1,2,3]triazol-1-ylmethyl)-tetrahydrofuran-2-yl]-1H-pyrimidine-2,4-dione], for which the IC50 is 12 µg/mL and 20.2 µM with MCF-7 (breast cancer) (setting [3]); 4 to 30 µg/mL (≈ 6.74 to 50.5 µM) with MCF-7 (breast cancer) (setting [4]); 12.6 µg/mL and 21.2 µM in the series on KB (nasopharynx cancer); 16 µg/mL and 26.9 µM in the series with A549 (lung cancer) (setting [5]); 4 to 30 µg/mL (≈ 6.74 to 50.5 µM) in the series with A549 (lung cancer) (setting [6]); 12 µg/mL and 20.2 µM with HeLa (cervical cancer) (setting [7]). In the series with HeLa (cervical cancer) (setting [8]), the IC50 was in the range of 4 to 30 µg/mL (≈ 6.74 to 50.5 µM).
Turning to `O=c1[nH]c(=O)n([C@H]2C[C@H](O)[C@@H](CO)O2)cc1F` [5-fluoro-2′-deoxyuridine, reference compound], the IC50 with MCF-7 (breast cancer) (setting [3]) was 2.81 µg/mL and 11.4 µM; in the series on MCF-7 (breast cancer) (setting [4]), less than 4 µg/mL; in the series with KB (nasopharynx cancer) it was 3.37 µg/mL and 13.7 µM; with A549 (lung cancer) (setting [5]) it was 3.3 µg/mL and 13.4 µM; with A549 (lung cancer) (setting [6]), less than 4 µg/mL; in the series with HeLa (cervical cancer) (setting [7]), 3.2 µg/mL and 13 µM. The IC50 in the series on HeLa (cervical cancer) (setting [8]) is less than 4 µg/mL. Also, the “Cytotoxic activity, overall verbal grade” value in series [1] was “medium-activity”; in series [1] (listed as 5FdU) it was “Medium cytotoxic activity”.
Turning to `O=c1[nH]c(=O)n(C2CC(O)C(Cn3cc(C4CN5CCC4C[C@@H]5[C@@H](O)c4ccnc5ccccc45)nn3)O2)cc1F` (stereo partly shown) [CN5AFU, 5-Fluoro-1-(4-hydroxy-5-{4-[6-(hydroxy-quinolin-4-yl-methyl)-1-aza-bicyclo[2.2.2]oct-3-yl]-[1,2,3]triazol-1-ylmethyl}-tetrahydrofuran-2-yl)-1H-pyrimidine-2,4-dione], the IC50 was 2.8 µg/mL and 4.97 µM with MCF-7 (breast cancer) (setting [3]); less than 4 µg/mL with MCF-7 (breast cancer) (setting [4]); 2.9 µg/mL and 5.15 µM in the series on KB (nasopharynx cancer); 3.1 µg/mL and 5.5 µM with A549 (lung cancer) (setting [5]); less than 4 µg/mL in the series with A549 (lung cancer) (setting [6]); 3.1 µg/mL and 5.5 µM in the series on HeLa (cervical cancer) (setting [7]). The IC50 in the series on HeLa (cervical cancer) (setting [8]) is less than 4 µg/mL. Further, the “higher activity than 5AddFU, breast cancer cells” value in the series on MCF-7 (breast cancer) came to 3 fold. Besides, the “higher activity than 5FU, breast cancer cells” value in the series on MCF-7 (breast cancer) came to 1.4 fold. Besides, the “higher activity than 5FdU, breast cancer cells” value in the series on MCF-7 (breast cancer) was determined as 1.6 fold. For the same compound, the “activity compared to 5FU, cervical cancer cells” value in the series on HeLa (cervical cancer) was “comparable activity”.
Consider `C=CC1C[N@@]2CCC1C[C@@H]2[C@@H](OCc1cn(CC2OC(n3cc(F)c(=O)[nH]c3=O)CC2O)nn1)c1ccnc2ccccc12` (stereo partly shown) [PCN5AFU, 5-Fluoro-1-(4-hydroxy-5-{4-[quinolin-4-yl-(5-vinyl-1-aza-bicyclo[2.2.2]oct-2-yl)-methoxymethyl]-[1,2,3]triazol-1-ylmethyl}-tetrahydrofuran-2-yl)-1H-pyrimidine-2,4-dione], for which the IC50 in the series with MCF-7 (breast cancer) (setting [3]) is 2.4 µg/mL and 3.98 µM; in the series on MCF-7 (breast cancer) (setting [4]) it was less than 4 µg/mL; in the series on KB (nasopharynx cancer), 2.4 µg/mL and 3.98 µM; with A549 (lung cancer) (setting [5]), 2.7 µg/mL and 4.47 µM; with A549 (lung cancer) (setting [6]), less than 4 µg/mL; in the series with HeLa (cervical cancer) (setting [7]), 2.7 µg/mL and 4.47 µM. The IC50 in the series with HeLa (cervical cancer) (setting [8]) is less than 4 µg/mL. For the same compound, the “higher activity than 5AddFU, breast cancer cells” value in the series on MCF-7 (breast cancer) is 3 fold. For the same compound, the “higher activity than 5FU, breast cancer cells” value in the series with MCF-7 (breast cancer) is given as 1.4 fold. Moreover, the “higher activity than 5FdU, breast cancer cells” value in the series on MCF-7 (breast cancer) was 1.6 fold. Also, in the series with HeLa (cervical cancer), the “activity compared to 5FU, cervical cancer cells” value is “comparable activity”.
On to `[N-]=[N+]=NC[C@H]1O[C@@H](n2cc(F)c(O)nc2=O)C[C@@H]1O` [5′-azido-2′,5′-dideoxy-5-fluorouridine, reference compound], for which the IC50 was 7.4 µg/mL and 27.3 µM with MCF-7 (breast cancer) (setting [3]); 4 to 30 µg/mL (≈ 14.7 to 111 µM) in the series on MCF-7 (breast cancer) (setting [4]); 7 µg/mL and 25.8 µM in the series on KB (nasopharynx cancer); 7 µg/mL and 25.8 µM with A549 (lung cancer) (setting [5]); 4 to 30 µg/mL (≈ 14.7 to 111 µM) with A549 (lung cancer) (setting [6]); 7.8 µg/mL and 28.8 µM in the series on HeLa (cervical cancer) (setting [7]). Further, in the series with HeLa (cervical cancer) (setting [8]), the IC50 was 4 to 30 µg/mL (≈ 14.7 to 111 µM). Besides, the cell growth inhibition in series [2] is 100%. Further, in series [1] (listed as 5AddFU), the “Cytotoxic activity, overall verbal grade” value is “Medium cytotoxic activity”.
Consider `C=CC1C[N@@]2CCC1C[C@@H]2[C@@H](OCc1cn(CC2OC(n3cc(F)c(=O)[nH]c3=O)CC2O)nn1)c1ccnc2ccc(OC)cc12` (stereo partly shown) [PQD5AFU, 5-Fluoro-1-(4-hydroxy-5-{4-[(6-methoxy-quinolin-4-yl)-(5-vinyl-1-aza-bicyclo[2.2.2]oct-2-yl)-methoxymethyl]-[1,2,3]triazol-1-ylmethyl}-tetrahydrofuran-2-yl)-1H-pyrimidine-2,4-dione], for which the IC50 with MCF-7 (breast cancer) (setting [3]) is 16 µg/mL and 25.2 µM; in the series with MCF-7 (breast cancer) (setting [4]), 4 to 30 µg/mL (≈ 6.31 to 47.3 µM); in the series on KB (nasopharynx cancer), 19.5 µg/mL and 30.8 µM; with A549 (lung cancer) (setting [5]), 19.7 µg/mL and 31.1 µM; with A549 (lung cancer) (setting [6]), 4 to 30 µg/mL (≈ 6.31 to 47.3 µM); in the series with HeLa (cervical cancer) (setting [7]) it was 19.1 µg/mL and 30.1 µM. Besides, the IC50 in the series on HeLa (cervical cancer) (setting [8]) is 4 to 30 µg/mL (≈ 6.31 to 47.3 µM).
As to `COc1ccc2nccc([C@H](O)[C@H]3CC4CCN3CC4c3cn(CC4OC(n5cc(F)c(=O)[nH]c5=O)CC4O)nn3)c2c1` (stereo partly shown) [QD5AFU, 5-Fluoro-1-[4-hydroxy-5-(4-{6-[hydroxy-(6-methoxy-quinolin-4-yl)-methyl]-1-aza-bicyclo[2.2.2]oct-3-yl}-[1,2,3]triazol-1-ylmethyl)-tetrahydrofuran-2-yl]-1H-pyrimidine-2,4-dione], the IC50 with MCF-7 (breast cancer) (setting [3]) was 6.1 µg/mL and 10.3 µM; with MCF-7 (breast cancer) (setting [4]), 4 to 30 µg/mL (≈ 6.74 to 50.5 µM); in the series with KB (nasopharynx cancer), 8.9 µg/mL and 15 µM; with A549 (lung cancer) (setting [5]), 8 µg/mL and 13.5 µM; with A549 (lung cancer) (setting [6]) it was 4 to 30 µg/mL (≈ 6.74 to 50.5 µM); in the series on HeLa (cervical cancer) (setting [7]), 7.3 µg/mL and 12.3 µM. Besides, the IC50 in the series on HeLa (cervical cancer) (setting [8]) fell in the range of 4 to 30 µg/mL (≈ 6.74 to 50.5 µM).
Regarding `O=c1[nH]cc(F)c(=O)[nH]1` [5-fluorouracil, reference compound], the IC50 was 2.37 µg/mL and 18.2 µM with MCF-7 (breast cancer) (setting [3]); less than 4 µg/mL in the series on MCF-7 (breast cancer) (setting [4]); 2.86 µg/mL and 22 µM with KB (nasopharynx cancer); 2.78 µg/mL and 21.4 µM in the series on A549 (lung cancer) (setting [5]); less than 4 µg/mL in the series on A549 (lung cancer) (setting [6]); 2.73 µg/mL and 21 µM in the series on HeLa (cervical cancer) (setting [7]). Moreover, the IC50 in the series with HeLa (cervical cancer) (setting [8]) is less than 4 µg/mL. Also, the entries for the “Cytotoxic activity, overall verbal grade” value in series [1] and in series [1] (listed as 5FU) were “medium-activity” and “Medium cytotoxic activity”, respectively.
`O=c1[nH]c(=O)n(C2CC(O)C(Cn3cc(C4C[N@@]5CCC4C[C@H]5[C@H](O)c4ccnc5ccccc45)nn3)O2)cc1F` (stereo partly shown) [CD5AFU, 5-Fluoro-1-(4-hydroxy-5-{4-[6-(hydroxy-quinolin-4-yl-methyl)-1-aza-bicyclo[2.2.2]oct-3-yl]-[1,2,3]triazol-1-ylmethyl}-tetrahydrofuran-2-yl)-1H-pyrimidine-2,4-dione]: the IC50 in the series on MCF-7 (breast cancer) (setting [3]) is 11.4 µg/mL and 20.2 µM; in the series on MCF-7 (breast cancer) (setting [4]) it was 4 to 30 µg/mL (≈ 7.1 to 53.2 µM); with KB (nasopharynx cancer), 15 µg/mL and 26.6 µM; with A549 (lung cancer) (setting [5]) it was 15.2 µg/mL and 27 µM; in the series on A549 (lung cancer) (setting [6]), 4 to 30 µg/mL (≈ 7.1 to 53.2 µM); in the series on HeLa (cervical cancer) (setting [7]), 13 µg/mL and 23.1 µM. In addition, the IC50 in the series on HeLa (cervical cancer) (setting [8]) is 4 to 30 µg/mL (≈ 7.1 to 53.2 µM).
Regarding `C=CC1C[N@@]2CCC1C[C@H]2[C@H](OCc1cn(CC2OC(n3cc(F)c(=O)[nH]c3=O)CC2O)nn1)c1ccnc2ccc(OC)cc12` (stereo partly shown) [PQN5AFU, 5-Fluoro-1-(4-hydroxy-5-{4-[(6-methoxy-quinolin-4-yl)-(5-vinyl-1-aza-bicyclo[2.2.2]oct-2-yl)-methoxymethyl]-[1,2,3]triazol-1-ylmethyl}-tetrahydrofuran-2-yl)-1H-pyrimidine-2,4-dione], the IC50 in the series with MCF-7 (breast cancer) (setting [3]) was 27 µg/mL and 42.6 µM; in the series on MCF-7 (breast cancer) (setting [4]) it was 4 to 30 µg/mL (≈ 6.31 to 47.3 µM); with KB (nasopharynx cancer), 31 µg/mL and 48.9 µM; in the series on A549 (lung cancer) (setting [5]) it was 29.4 µg/mL and 46.4 µM; in the series with A549 (lung cancer) (setting [6]), 4 to 30 µg/mL (≈ 6.31 to 47.3 µM); in the series on HeLa (cervical cancer) (setting [7]), 29 µg/mL and 45.8 µM. In the series on HeLa (cervical cancer) (setting [8]), the IC50 lay in the range of 4 to 30 µg/mL (≈ 6.31 to 47.3 µM).
